# Experimental data as given in patent US20250221943A1, “POLYDOPAMINE CO-POLYMER NANOPARTICLES” (CAMBRIDGE ENTERPRISE LIMITED, priority 2022, published 2025).
# What was measured:
# [1] = Loading content by UV-Vis; format: physicochemical; details: for loading content of the drug in F127@PDA NPs: physical adsorption, conventional method
# Description: F127@PDA NPs (5 mg) was dissolved in 10 mM Tris buffer (5 mL) and Fluorescein-TEG-NH2 (10 mg, 2 wt eq.) dissolved in 0.5 mL ethanol was added dropwise. The mixture was protected from direct sunlight and stirred over night at room temperature. Excess Fluorescein-TEG-NH2 was removed washing with Milli-Q water using Vivaspin 20 (Satorius, UK) centrifugal concentrators (10 kDa MWCO) for 15 min at 4000 rpm until the supernatant was colourless, followed by 3 days dialysis against water with 12-14 kDa MWCO dialysis bags.
# To assess the loading capacity, absorption of SN38 was investigated adapting a method by Wang et al.^[90] A suspension of 10 mg F127@PDA NPs (1 mg/mL) and 2.5 mg SN38 (0.25 wt eq.) in DMSO:H2O=1:10 (10 mL) were sonicated for 30 min, followed by stirring at room temperature for 72 hours. To remove free drug, the reaction mixture was first centrifuged at 2000 rpm for 5 min. The supernatant was collected and washed with Milli-Q water using Vivaspin 20 (Satorius, UK) centrifugal concentrators (10 kDa MWCO) for 15 min at 4000 rpm. The obtained particles were diluted in Milli-Q water, frozen in liquid nitrogen and lyophilised to yield a dark brown powder. The loading content of SN38 within the NPs was determined using UV-Vis. The absorbance of SN38@F127@PDA NPs at 382 nm was deducted by the F127@PDA absorbance and the loading content was calculated according to the following equation: (3).^[98]
# F127@PDA NPs (5 mg) was dissolved in 10 mM Tris buffer (5 mL) and the corresponding ligand 4-6 (10 mg, 2 wt eq.) dissolved in 0.5 mL ethanol was added dropwise. The mixture was protected from direct sunlight and stirred over night at room temperature. […]
# A suspension of 10 mg F127@PDA NPs (1 mg/mL) and 2.5 mg of the corresponding drug (0.25 wt eq.) in DMSO:H2O=1:10 (10 mL) were sonicated for 30 min, followed by stirring at room temperature for 72 hours. […] The loading content of Gem and PTX within the NPs was determined using UV-Vis. The absorbance of the free drug in the supernatant was measured and the loading content was calculated according to the following equation: […]
# PANC-1 [2] = assay: MTS assay cytotoxicity of SN38 and SN38@F127@PDA; format: cell-based, human; details: PANC-1, MTS, 72 h treatment
# Description: (§1) Additionally, the effect of F127@PDA NPs on the viability of AsPC-1, BxPC-3, MIA PaCa-2, PANC-1 and ARPE-19 using MTS assay (Promega, USA.) Cells were seeded into clear 96-well plates containing 2000 cells/well in 100 μL complete growth medium and cultured for 24 h at 37° C. and 5% CO2. Subsequently, cells were treated with varying concentrations of F127@PDA_40, F127@PDA_60 and F127@PDA_100 (0.01-100 μg/mL) dissolved in complete growth media containing 0.1% water. After further 72 h incubation at 37° C. and 5% CO2, 20 μL of CelTiter 96® AQueous One Solution (Promega, USA) was added into each well and incubated at 37° C., 5% CO2 for 1-4 h, according to the manufacturer's instruction. The absorbance of each well was measured at 490 nm using a Spark plate reader (TECAN, CH). Control measurements included negative control of cells with DMEM, cells with DMEM containing 0.1% water, cell-free culture media (blank) and cell-free sample dilutions in culture media to evaluate potential sample interferences with MTS reagent. All experiments were conducted in biological triplicates. The percentage cell viability was calculated according to the following:
# (§2) Cells were seeded into 96-well plates at concentration of 2000 cells/well, in 100 μl of complete growth medium and incubated at 37 C, 5% CO2 for 24 h. After overnight incubation, the cells were treated with SN38 and the same concentration of SN38@F127@PDA using various concentrations (0.0001 μM-1 μM). The plates were inserted into the IncuCyte®S3 Live-Cell Analysis System (Sartorius) for real-time imaging. Treated plates were imaged every 3 h for 72 h under cell culture conditions with 10× objective using the brightfield channel. Average cell confluence was calculated as described in the previous section. In addition to live cell imaging after 72 h incubation in the IncuCyte®S3 MTS assay was performed as described in the section above.
# BxPC-3 [3] = assay: MTS assay cytotoxicity of SN38 and SN38@F127@PDA; format: cell-based, human; details: BxPc-3, MTS, 72 h treatment
# Description: as §1, §2
# MIA PaCa-2 [4] = assay: MTS assay cytotoxicity of SN38 and SN38@F127@PDA; format: cell-based, human; details: MIA PaCa-2, MTS, 72 h treatment
# Description: as §1, §2
# AsPC-1 [5] = assay: MTS assay cytotoxicity of SN38 and SN38@F127@PDA; format: cell-based, human; details: AsPC-1, MTS, 72 h treatment
# Description: as §1, §2
# PANC-1 [6] = assay: Live-cell imaging (IncuCyte) cytotoxicity of SN38 and SN38@F127@PDA; format: cell-based, human; details: PANC-1, live-cell imaging, 72 h treatment
# Description: (§3) All NPs were tested for cytotoxicity studies in AsPC-1, BxPC-3, MIA-PaCa-2, PANC-1 and ARPE-19. Cells were seeded into 96-well plates at concentration of 2000 cells/well, in 200 μl of complete growth medium and incubated at 37 C, 5% CO2 for 24 h. After overnight incubation, the cells were treated with different concentration of F127@PDA-40, F127@PDA-60 and F127@PDA-100 (0.01-100 μg/mL) dissolved in complete cell media, the same volume of water was added for the negative control. The plates were then inserted into the IncuCyte®S3 Live-Cell Analysis System (Sartorius) for real-time imaging. Treated plates were imaged every 3 h for 72 h under cell culture conditions with 10× objective using the brightfield channel. Mean cell confluence was calculated using the images taken from 3 random fields of view per well using the IncuCyte S3 v2017A software. All Incucyte experiments were performed in triplicate in three independent experiments. Relative confluence values were obtained by normalizing each value to the time zero value in each sample and normalised to the untreated control sample.
# as §2
# BxPC-3 [7] = assay: as above; format: cell-based, human; details: BxPc-3, live-cell imaging, 72 h treatment
# Description: as §3, §2
# MIA PaCa-2 [8] = assay: as above; format: cell-based, human; details: MIA PaCa-2, live-cell imaging, 72 h treatment
# Description: as §3, §2
# AsPC-1 [9] = assay: as above; format: cell-based, human; details: AsPC-1, live-cell imaging, 72 h treatment
# Description: as §3, §2
compound,measurement,setting,value
"Nc1ccn([C@@H]2O[C@H](CO)[C@@H](O)C2(F)F)c(=O)n1 [Gem, Gemcitabine]",loading content of the drug in F127@PDA NPs,[1],11.5±5.7 % (w/w)
"CC(=O)O[C@H]1C(=O)[C@@]2(C)[C@H]([C@H](OC(=O)c3ccccc3)[C@]3(O)C[C@H](OC(=O)[C@H](O)[C@@H](NC(=O)c4ccccc4)c4ccccc4)C(C)=C1C3(C)C)[C@]1(OC(C)=O)CO[C@@H]1C[C@@H]2O [PTX, Paclitaxel]",loading content of the drug in F127@PDA NPs,[1],14.3±4.7 % (w/w)
CCc1c2c(nc3ccc(O)cc13)-c1cc3c(c(=O)n1C2)COC(=O)[C@]3(O)CC [SN38],IC50,PANC-1 [2],113 nM
same,IC50,BxPC-3 [3],56 nM
same,IC50,MIA PaCa-2 [4],13.1 nM
same,IC50,AsPC-1 [5],110 nM
same,IC50,PANC-1 [6],56.1 nM
same,IC50,BxPC-3 [7],8.91 nM
same,IC50,MIA PaCa-2 [8],12.1 nM
same,IC50,AsPC-1 [9],52.9 nM
TAMRA-CONH—PKKKRKVC—COOH ({TAMRA}-PKKKRKVC-OH) [TAMRA-NLS],loading content (w/w) of the ligand on functionalized F127@PDA NPs,[1]; Michael addition post-functionalization,3%
